From US20250122155A1, “NOVEL INDOLE DERIVATIVE, PHARMACEUTICAL COMPOSITION COMPRISING SAME, AND USE THEREOF” (MITOIMMUNE THERAPEUTICS INC., priority 2021, published 2025)

Columns and labels:
H9C2 cells = test: Protective effect on heart cells against t-BHP (LDH release); type: cell-based; details: H9C2, t-BHP 400 μM, 2 hours, read-out: EC50 (μM), Cell Protection Effect against t-BHP in Heart Cells
Summary of the method: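 H9C2 cells (1.5×10^4/well, cultured 24 h) were pretreated 15–20 min with compound at 0.01–30 μM final, then exposed 2 h to 400 μM t-BHP. LDH in supernatant was measured colorimetrically at 490 nm after 30 min room-temperature reaction; EC50 derived from protection.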

ARPE-19 cells = test: Cell death protective effect in retinal epithelial cells against Erastin and RSL3 (LDH); type: cell-based, human; details: 24 hours
Protocol: In order to identify the protective effect on retinal epithelial cells, ARPE-19 cells were divided into 96-well plates by 1×10^4 and cultured for 18 to 24 hours. The compounds of Examples were diluted to final concentrations of 0.03 and 0.3 μM, treated in each well, and incubated for 20 minutes. Erastin, and RSL3 were treated to have final concentrations of 10 μM, and 0.3 μM, respectively, and cultured for 24 hours. In order to identify the protective effect of each compound, the degree of LDH extracellular secretion was measured using cytotoxicity LDH assay kit [Dojindo; CK12]. Briefly, at the time when the treatment of the cells with Erastin, and RSL3 for 24 hours is completed, the supernatants containing the cells are taken by 70 μL and transferred to a new 96-well plate. The assay buffer included in the kit is added in an amount of 70 μL/well (the same amount as the sample) thereto, and then the plate is wrapped with a foil and the reaction is performed at room temperature for 15 minutes.

MLE-12 cells = test: Cell death protective effect in lung epithelial cells against RSL3 (LDH); type: cell-based, rat; details: MLE-12, RSL3 1.0 μM, 24 hours
Protocol: In order to identify the protective effect on lung epithelial cells, MLE-12 cells were divided into 96-well plates by 5×10^3 and cultured for 18 to 24 hours. The compounds of Examples were diluted to final concentrations of 0.1 and 1.0 μM, treated in each well, and incubated for 20 minutes. RSL3 was treated to have final concentrations of 1.0 μM, respectively, and cultured for 24 hours. In order to identify the protective effect of each compound, the degree of LDH extracellular secretion was measured using cytotoxicity LDH assay kit [Dojindo; CK12]. Briefly, at the time when the treatment of the cells with RSL3 for 24 hours is completed, the supernatants containing the cells are taken by 70 μL and transferred to a new 96-well plate. The assay buffer included in the kit is added in an amount of 70 μL/well (the same amount as the sample) thereto, and then the plate is wrapped with a foil and the reaction is performed at room temperature for 15 minutes.

[1] = ARPE-19, Erastin 10 μM, compound 0.03 μM
[2] = ARPE-19, Erastin 10 μM, compound 0.3 μM
[3] = ARPE-19, RSL3 0.3 μM, compound 0.03 μM
[4] = ARPE-19, RSL3 0.3 μM, compound 0.3 μM

Compound | EC50 (H9C2 cells) [µM] | inhibition (%) (ARPE-19 cells; [1]) | inhibition (%) (ARPE-19 cells; [2]) | inhibition (%) (ARPE-19 cells; [3]) | inhibition (%) (ARPE-19 cells; [4]) | inhibition (%) (MLE-12 cells; compound 0.1 μM) | inhibition (%) (MLE-12 cells; compound 1.0 μM)
COCCOCc1cc(NC2CCOCC2)c2[nH]c(-c3ccccc3)cc2c1 [Example 1, 5-(2-methoxyethoxymethyl)-2-phenyl-N-tetrahydropyran-4-yl-1H-indol-7-amine] | ≤ 0.3 | 100 | 100 | 95 | 100 | 100 | 100
COCCOCc1cc(NCC2CCOCC2)c2[nH]c(-c3ccccc3)cc2c1 [Example 4, 5-2(methoxyethoxymethyl)-2-phenyl-N-(tetrahydropyran-4-ylmethyl)-1H-indol-7-amine] | ≤ 0.3 | 100 | 100 | 100 | 100 | 90 | 91
COCCOCc1cc(NC2CCN(C(C)=O)CC2)c2[nH]c(-c3ccccc3)cc2c1 [Example 30, 1-[4-[[5-(2-methoxyethoxymethyl)-2-phenyl-1H-indol-7-yl]amino]piperidyl]-1-ethanone] | ≤ 0.3 | 80 | 100 | 60 | 100 | 84 | 95
CCOCCOCc1cc(NC2CCCC2)c2[nH]c(-c3ccccc3)cc2c1 [Example 36, N-cyclopentyl-5-(2-ethoxyethoxymethyl)-2-phenyl-1H-indol-7-amine] | ≤ 0.3 | 98 | 100 | 100 | 100 | 89 | 94
COCCOCCOCc1cc(NC2CCCC2)c2[nH]c(-c3ccccc3)cc2c1 [Example 39, N-cyclopentyl-5-[2-(2-methoxyethoxy)ethoxymethyl]-2-phenyl-1H-indol-7-amine] | ≤ 0.3 | 100 | 100 | 100 | 100 | 89 | 89
COCCOCc1cc(NCc2ccncc2)c2[nH]c(-c3ccccc3)cc2c1 [Example 45, 5-(2-methoxyethoxymethyl)-2-phenyl-N-(4-pyridylmethyl)-1H-indol-7-amine] | ≤ 0.3 | 100 | 100 | 100 | 100 | 98 | 100
COCCOCc1cc(NC2CCOCC2)c2[nH]cc(C)c2c1 [Example 50, 5-(2-methoxyethoxymethyl)-3-methyl-N-tetrahydropyran-4-yl-1H-indol-7-amine] | > 1 | 19 | 86 | 4 | 45 | 0 | 56
COCCOCc1cc(NC2CCNCC2)c2[nH]c(-c3ccccc3)cc2c1 [Example 64, 5-((2-methoxyethoxy)methyl)-2-phenyl-N-(piperidin-4-yl)-1H-indol-7-amine] | ≤ 0.3 | 100 | 100 | 67 | 100 | 100 | 98
CCOC(=O)c1ccc(NC2CCCCC2)c(N)c1 [Ferrostatin-1, reference compound] | – | 86 | 100 | 61 | 100 | 100 | 100
